Test results as given in patent US20020002171A1, “Materials and methods for killing nematodes and nematode eggs” (priority 2000, published 2002).

Test system: Caenorhabditis elegans
Assay: C. elegans L1 nematicidal dose response in 96-well plates, 5 day visual score (Example 2; same procedure for Example 7, Table 3)
Type: in vivo
Design: key to 5 Day Visual Score V1 / 5 Day Visual Score V2 / 5 Day Visual Score V3 / 5 Day Visual Score V4 / 5 Day Visual Score V6 / 5 Day Visual Score V5 / Initial HTS Run Visual Score / Follow-up HTS Run Visual Score: Dead: only stiff L1s (no movement); Dead (L4): worms are dead, but at a later larval stage; majority of worms are L1 (based on size) worms move when plate is tapped; majority of worms are L2 (based on size); majority of worms are L3 (based on size); majority of worms are L4 (based on size); AD: majority of worms are adult; #AD: 5 adult worms or less; B!: sterile (0-25 progeny); B: low broodsize (25-100 progeny); ˜B: moderate broodsize (100-250 progeny); <: reduced broodsize (250-500 progeny); OK: no effect (˜1000+ progeny)
Details: for 5 Day Visual Score V1 / 5 Day Visual Score V4 / 5 Day Visual Score V5 / 5 Day Visual Score V6 / 5 Day Visual Score V2 / 5 Day Visual Score V3: dose response; for 5 Day Visual Score V1: dilution V1, 5 day; for 5 Day Visual Score V4: dilution V4, 5 day; for 5 Day Visual Score V5: dilution V5, 5 day; for 5 Day Visual Score V6: dilution V6, 5 day; for 5 Day Visual Score V2: dilution V2, 5 day; for 5 Day Visual Score V3: dilution V3, 5 day
How it was run: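 Scoring was by eye at 100× on day 5, after incubation at 20° C, of 20 C. elegans L1s per well fed 1% E. coli HB101 in NGM. Compound columns V1–V6 spanned 70 μM to 0.3 μM in 3-fold steps, with 1.4% DMSO in the top well and as control.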

Row | SMILES | Follow-up HTS Run % Run [%] | Follow-up HTS Run mOD [mOD] | Initial HTS Run % Run [%] | Initial HTS Run mOD [mOD] | 5 Day Visual Score V1 | 5 Day Visual Score V4 | 5 Day Visual Score V5 | 5 Day Visual Score V6 | Follow-up HTS Run Visual Score | Initial HTS Run Visual Score | 5 Day Visual Score V2 | 5 Day Visual Score V3
1 | CN(Cc1ccccc1)c1nc(NCc2ccc(C(F)(F)F)cc2)ns1 [compound 315] | 118 | 190 | 112 | 123 | L1 | ˜B (moderate broodsize (100-250 progeny)) | OK (no effect (˜1000+ progeny)) | < (reduced broodsize (250-500 progeny)) |  |  |  | 
2 | OCC1CCCN1c1nc(NCc2ccc(C(F)(F)F)cc2)ns1 (stereo not shown) [compound 316] | 106 | 171 | 100 | 110 | Dead | < (reduced broodsize (250-500 progeny)) | OK (no effect (˜1000+ progeny)) | OK (no effect (˜1000+ progeny)) | L2 | Dead(L3) | Dead(L3) | ˜B (moderate broodsize (100-250 progeny))
3 | COc1ccc(CCN(C)c2nc(NCc3ccc(C(F)(F)F)cc3)ns2)cc1OC [compound 317] | 111 | 179 | 108 | 119 | Dead | OK (no effect (˜1000+ progeny)) | OK (no effect (˜1000+ progeny)) | OK (no effect (˜1000+ progeny)) | L2 |  |  | OK (no effect (˜1000+ progeny))
4 | Cc1cccc(C)c1N1CCN(c2nc(NCc3ccccc3C(F)(F)F)ns2)CC1 [compound 318] | 111 | 178 | 101 | 111 | B (low broodsize (25-100 progeny)) | OK (no effect (˜1000+ progeny)) | OK (no effect (˜1000+ progeny)) | OK (no effect (˜1000+ progeny)) | B (low broodsize (25-100 progeny)) | B!-Clear-Few Eggs | ˜B (moderate broodsize (100-250 progeny)) | OK (no effect (˜1000+ progeny))
5 | CCCCN(CC)c1nc(NCc2ccc(C(F)(F)F)cc2)ns1 [compound 319] | 127 | 205 | 121 | 133 |  | OK (no effect (˜1000+ progeny)) | OK (no effect (˜1000+ progeny)) | OK (no effect (˜1000+ progeny)) | L2 | L2 | ˜B (moderate broodsize (100-250 progeny)) | OK (no effect (˜1000+ progeny))
6 | CCN(Cc1ccccc1)c1nc(NCc2ccccc2C(F)(F)F)ns1 [compound 320] | 118 | 190 | 102 | 112 | L4#AD/B! | OK (no effect (˜1000+ progeny)) | OK (no effect (˜1000+ progeny)) | OK (no effect (˜1000+ progeny)) |  |  | < (reduced broodsize (250-500 progeny)) | OK (no effect (˜1000+ progeny))
7 | C=CCN(CC=C)c1nc(NCc2ccccc2C(F)(F)F)ns1 [compound 321] | 116 | 186 | 95 | 105 |  | OK (no effect (˜1000+ progeny)) | OK (no effect (˜1000+ progeny)) | OK (no effect (˜1000+ progeny)) |  | Dead/2L2 |  | 
8 | CN(CCc1ccccc1)c1nc(NCc2ccccc2C(F)(F)F)ns1 [compound 322] | 111 | 178 | 94 | 103 | B! (sterile (0-25 progeny)) | OK (no effect (˜1000+ progeny)) | OK (no effect (˜1000+ progeny)) | OK (no effect (˜1000+ progeny)) | B (low broodsize (25-100 progeny)) | B!-Clear-Few Eggs |  | OK (no effect (˜1000+ progeny))
9 | CN(Cc1ccccc1)c1nc(NCc2ccccc2C(F)(F)F)ns1 [compound 323] | 120 | 193 | 110 | 121 | L4#AD/B! | < (reduced broodsize (250-500 progeny)) | OK (no effect (˜1000+ progeny)) | OK (no effect (˜1000+ progeny)) | L4/AD/B! | L3/L4/AD/B!-Clear |  | OK (no effect (˜1000+ progeny))
10 | Fc1ccc(N2CCN(c3nc(NCc4ccccc4)ns3)CC2)cc1 [compound 324] | 34 | 54 | 114 | 125 | L1 | OK (no effect (˜1000+ progeny)) | < (reduced broodsize (250-500 progeny)) | OK (no effect (˜1000+ progeny)) |  |  |  | 
11 | CCN(c1nc(NCc2ccccc2)ns1)C1CCCCC1 [compound 325] | 111 | 179 | 103 | 113 |  | < (reduced broodsize (250-500 progeny)) | < (reduced broodsize (250-500 progeny)) | OK (no effect (˜1000+ progeny)) | L4/AD/B | L3/L4/AD/B | #AD/˜B | < (reduced broodsize (250-500 progeny))
12 | CCN(Cc1ccccc1)c1nc(NCc2ccccc2)ns1 [compound 326] | 110 | 177 | 95 | 105 |  | OK (no effect (˜1000+ progeny)) | OK (no effect (˜1000+ progeny)) | OK (no effect (˜1000+ progeny)) |  |  |  | 
13 | C=CCN(CC=C)c1nc(NCc2ccccc2)ns1 [compound 327] | 106 | 171 | 105 | 115 | Dead | OK (no effect (˜1000+ progeny)) | OK (no effect (˜1000+ progeny)) | OK (no effect (˜1000+ progeny)) |  | L2/L3(Dead L3) | B (low broodsize (25-100 progeny)) | ˜B (moderate broodsize (100-250 progeny))
